Experiment [1] has as its system differentiation of macrophages into osteoclasts. As to the kind of experiment: Inhibitory effect on differentiation of macrophages into osteoclasts (rhM-CSF/RANKL, TRAP staining). Format: cell-based, mice (C57BL/6J). The note with it: mouse bone marrow macrophages, rhM-CSF 30 ng/mL + RANKL 200 ng/mL, 5 days, light microscope, Examples 2, 3, 7, 8, 9, 11 tested against Comparative Example 1 as control, FIGS. 1 to 6. As to the method: Bone marrow cells were harvested from 4 to 5-week old male mice (C57BL/6J). Specifically, mice were sacrificed by cervical dislocation, and femur and tibia were extracted while removing muscles adhered around the bone with scissors and soaked in phosphate buffered saline (PBS). A 1 mL syringe filled with α-minimum essential medium (α-MEM) was put into one end of the femur and tibia from which bone marrow cells were then harvested.
The bone marrow cells were cultured to obtain macrophages. Specifically, the obtained bone marrow cells were placed in a 50 mL tube and centrifuged at 1500 rpm for 5 minutes. Then, the supernatant was removed, and a 3:1 mixture of a Gey's solution and PBS was added and maintained at room temperature for about 2 to 3 minutes. After another centrifugation (1500 rpm, 5 minutes), the supernatant was removed, α-MEM was added, followed by stirring, and then the cells were cultured in a 10 cm cell culture dish at 37° C. for 24 hours. After the third centrifugation (1500 rpm, 5 minutes), the supernatant was removed, a culture medium and a macrophage differentiation factor rhM-CSF (30 ng/mL) were added, and then the cells were cultured in a 10 cm cell culture dish at 37° C. for 3 days. After 3 days, macrophages adhered to the dish were scraped and collected in a tube, followed by centrifugation (1500 rpm, 5 minutes). […]

Experiment [2] concerns bone loss induced by ovariectomy. In words: Inhibitory effect on bone loss induced by ovariectomy in ovariectomized mouse models (tibia, μ-CT, TRAP staining). Format: in vivo, female mice. The note with it: ovariectomized mice, intraperitoneal for 3 weeks at intervals of 2 days, versus control group 1 (ovariectomy). The text has this:
In order to examine the inhibitory effects of the compounds on the bone loss induced by ovariectomy in ovariectomized mouse models, 8-week old female mice were divided into control groups 1 and 2 and experimental group 1, each containing 5 mice.
The mice in control group 1 and experimental group 1 were subjected to ovariectomy via laparotomy, and the mice in control group 2 were subjected to laparotomy in the same manner as in control group 1 and experimental group 1, but without ovariectomy, and served as a sham control.
The compound of Example 13 was intraperitoneally administered to the mice of experimental group 1 for 3 weeks at intervals of 2 days after 7 days of recovery from the surgery. After verification of excision of ovary of mice, both tibiae were harvested from the mice of experimental group 1 and control groups 1 and 2, and cross-sections were consecutively imaged using μ-CT (Skyscan 1076, SKYS CAN N. V.) and V-works program (Cybermed) and reconstructed into 3-dimensional images. Then, the bone volume, bone density, and the number of trabecular bones were quantified using an image analysis program.
The experimental results and statistical analysis using ANOVA (one-way analysis of variance) if verify the Newman kulseu (Newman-Keuls test) significance is verified using the […] level or less, a significance test was performed.
In FIG. 9, the bone volume is expressed as a percentage (BV/TV %) of the bone volume (BV) of the harvested tibia to the total bone volume (TV), and in FIG. 11, the number of trabecular bones is expressed as the number of trabecular bones) per 1 millimeter (mm).
Moreover, the harvested tibiae were placed in PBS, formaldehyde added, and fixed for 24 hours and then decalcified in PBS to which was added 0.5 M EDTA. […] Moreover, the number of osteoclasts was analyzed under a microscope using the Osteomeasure software program (Osteometrics Inc., USA), and the results are shown in FIG. 13, in which the quantification of osteoclasts is expressed as the number of osteoclasts per bone surface 1 millimeter (mm). […]

The results in this text go back to patent publication US20140128418A1, “PYRAZOLE DERIVATIVES, PREPARATION METHOD THEREOF, AND COMPOSITION FOR PREVENTING AND TREATING OSTEOPOROSIS CONTAINING SAME” (EWHA UNIVERSITY-INDUSTRY COLLABORATION FOUNDATION, priority 2011, published 2014).

Take `Oc1cc(-c2ccccc2)nn1-c1ccccn1` [Comparative Example 1, 3-phenyl-1-(pyridin-2-yl)-1H-pyrazol-5-ol]: in experiment [1], the “differentiation of macrophages into osteoclasts” value is given as “more macrophages differentiated into osteoclasts”.

As for `COc1cc(/C=C/c2nn(-c3ccccn3)c(O)c2Cc2ccccc2)ccc1O` [Example 13, 1-(pyridin-2-yl)-3-[(3-methoxy-4-hydroxyphenyl)-E-ethenyl]-4-benzyl-1H-pyrazol-5-ol], the “reduction in bone volume of the tibia (BV/TV %)” value in experiment [2] (FIG. 9) is “less than that in control group 1”. The “bone density of the tibia” value in experiment [2] (FIG. 10) is on record as “higher”. Moreover, the “number of trabecular bones (per 1 mm)” value in experiment [2] (FIG. 11) is given as “higher”.
